Measured values as given in patent US5639950A, “Nucleotide sequence encoding for bifunctional enzyme for proline production” (The Ohio State University Research Foundation, priority 1994, dated 1997).

Tests used:
[1] = target: Vigna aconitifolia delta1-pyrroline-5-carboxylate synthetase (P5CS) (Vigna aconitifolia, UniProt P32296); assay: biochemical
Description: (§1) FIG. 3 is a graph illustrating feedback inhibition of delta^1 -pyrroline-5-carboxylate synthetase by proline. Ammonium sulfate-fractionated extracts from E. coli CSH26 (.circle-solid.), E. coli CSH26 harboring PVAB2 (.smallcircle.), the proB74 allele (.orgate.), and the wild-type proB allele (.quadrature.) were assayed for gamma-GK activity by the method of Hayzer and Leisinger, J. Gen. Microbiol., 118, 1980, pp. 287-293.
(§2) P5CS has GSA dehydrogenase and gamma-GK activities, and the gamma-GK activity is feedback inhibited by proline. To confirm that the presently claimed sequence, PVAB2 of FIGS. 1A, 1B, 1C and 1D, encoded P5CS activity, ammonium sulfate-fractionated extracts of E. coli CSH26 and CSH26 harboring PVAB2 were assayed for GSA dehydrogenase-dependent gamma-GK enzyme activity. […] Because proline production is regulated by end-product inhibition of gamma-GK in bacteria, the plant enzyme P5CS was similarly subjected to feed-back control testing. […] The mutation responsible for the resistance to end-product inhibition of the gamma-GK in the proB 74 allele involves a substitution of an A for a G nucleotide, resulting in a change from aspartic acid to asparagine residue at position 107.
(§3) E. coli CSH26 cells and CSH26 harboring different plasmids were grown aerobically at 37° C. for about 16 hours. The cells were harvested by centrifugation at 4,000× g for 10 minutes, and the cell paste resulting was suspended in 4 ml of buffer A (50 mM Tris-Hcl, 1 mM dithiothreitol) at […] Following sonication, (Benson Sonifier, Type 450) at 50 watts, the slurry was centrifuged at 4,000× g for 10 minutes and the supernatant fractionated by ammonium sulfate precipitation. For E. coli CSH26 containing PVAB2, the fraction precipitating between 0 and 30% saturation of ammonium sulfate was used for enzyme assay.

[2] = target: T1, wild-type E. coli gamma-GK (Escherichia coli, UniProt P0A7B5); assay: biochemical
T1 construct: made in house; host or cells: E. coli CSH26 harboring the wild-type proB allele (plasmid pDU1 from A. Dandekar); ammonium sulfate fraction 40-60%
T1 sequence (P0A7B5 whole entry): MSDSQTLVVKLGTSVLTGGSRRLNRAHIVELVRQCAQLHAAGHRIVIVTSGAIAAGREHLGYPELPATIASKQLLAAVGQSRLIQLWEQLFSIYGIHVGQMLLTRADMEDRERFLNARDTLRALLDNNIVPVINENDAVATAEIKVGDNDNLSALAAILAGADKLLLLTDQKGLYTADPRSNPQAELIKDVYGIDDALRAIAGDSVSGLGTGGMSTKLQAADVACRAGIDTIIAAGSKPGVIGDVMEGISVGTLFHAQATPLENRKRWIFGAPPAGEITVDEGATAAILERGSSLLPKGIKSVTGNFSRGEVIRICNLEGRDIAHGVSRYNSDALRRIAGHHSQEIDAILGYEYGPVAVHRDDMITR
Description: as §1, §2, §3

[3] = system: wild-type E. coli gamma-GK; assay: biochemical; details: more sensitive than Vigna enzyme
Description: as §1, §2, §3

[4] = target: mutant E. coli gamma-GK encoded by the proB74 allele (Escherichia coli, UniProt P0A7B5, D107N); details: proB74 mutant form of the bacterial enzyme
mutant E. coli gamma-GK encoded by the proB74 allele, sequence (P0A7B5 whole entry D107N): as the sequence (P0A7B5 whole entry) above, with D107N counted along it
Description: as §1, §2
E. coli CSH26 cells and CSH26 harboring different plasmids were grown aerobically at 37° C. for about 16 hours. […]

Vigna aconitifolia delta1-pyrroline-5-carboxylate synthetase (P5CS), sequence (P32296 whole entry): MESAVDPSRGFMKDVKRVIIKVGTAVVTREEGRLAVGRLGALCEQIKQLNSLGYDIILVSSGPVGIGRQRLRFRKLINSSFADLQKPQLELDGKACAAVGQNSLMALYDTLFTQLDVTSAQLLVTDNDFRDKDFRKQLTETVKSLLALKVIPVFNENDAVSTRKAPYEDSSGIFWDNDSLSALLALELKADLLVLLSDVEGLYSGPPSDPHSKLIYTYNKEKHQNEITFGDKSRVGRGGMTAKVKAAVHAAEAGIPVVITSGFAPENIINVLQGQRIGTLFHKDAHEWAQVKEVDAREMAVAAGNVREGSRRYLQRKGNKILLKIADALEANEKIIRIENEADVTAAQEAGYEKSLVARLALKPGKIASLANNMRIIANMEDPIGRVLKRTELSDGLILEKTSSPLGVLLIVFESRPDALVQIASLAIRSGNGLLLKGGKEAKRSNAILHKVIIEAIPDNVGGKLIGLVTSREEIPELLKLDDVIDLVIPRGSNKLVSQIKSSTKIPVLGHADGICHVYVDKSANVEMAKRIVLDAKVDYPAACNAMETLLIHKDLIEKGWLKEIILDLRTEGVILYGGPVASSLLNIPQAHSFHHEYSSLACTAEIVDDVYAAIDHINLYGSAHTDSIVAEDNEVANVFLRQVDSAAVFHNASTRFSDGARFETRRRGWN

With `O=C(O)[C@@H]1CCCN1` [proline] the IC50 [1] was 6 mM, the IC50 [2] was 0.2 mM and the “sensitivity to proline of wild-type E. coli gamma-GK relative to the Vigna enzyme” value [3] was 30 times. For the same compound, the “sensitivity to end product (proline) inhibition, fold less sensitive” value [4] was “approximately 200 fold”.
